Tests used:
LB1047-RCC = experiment: cells; format: functional, cell-based, Homo sapiens; settings: Homo sapiens, LB1047-RCC
Description: SANGER: Inhibition of human LB1047-RCC cell growth in a cell viability assay.

BL-70 = experiment: SANGER: Inhibition of human BL-70 cell growth in a cell viability assay.; format: functional, cell-based; settings: Homo sapiens, BL-70
EVSA-T = experiment: cells; format: functional, cell-based, Homo sapiens; settings: Homo sapiens, EVSA-T;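 note: growth inhibition of EVSA-T cells, read out with a cell viability assay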
Description: SANGER: Inhibition of human EVSA-T cell growth in a cell viability assay.

NCI-H719 = experiment: cells; format: functional, cell-based, Homo sapiens; settings: Homo sapiens, NCI-H719;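 note: growth inhibition of the cultured cell line, read out with a viability assay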
Description: SANGER: Inhibition of human NCI-H719 cell growth in a cell viability assay.

BB49-HNC = experiment: cells; format: functional, cell-based, Homo sapiens; settings: Homo sapiens, BB49-HNC;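 note: cell viability assay read-out, reported as inhibition of BB49-HNC cell growth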
Description: SANGER: Inhibition of human BB49-HNC cell growth in a cell viability assay.

NOS-1 = experiment: cells; format: functional, cell-based, Homo sapiens; settings: Homo sapiens, NOS-1;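 note: growth inhibition of the human NOS-1 cell line, read out with a cell viability assay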
Description: SANGER: Inhibition of human NOS-1 cell growth in a cell viability assay.

NCI-H1650 = experiment: cells; format: functional, cell-based, Homo sapiens; settings: Homo sapiens, NCI-H1650;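 note: growth inhibition of human NCI-H1650 cells measured by a cell viability assay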
Description: SANGER: Inhibition of human NCI-H1650 cell growth in a cell viability assay.

A101D = experiment: cells; format: functional, cell-based, Homo sapiens; settings: Homo sapiens, A101D;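 note: growth inhibition of the cell line, measured with a viability assay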
Description: SANGER: Inhibition of human A101D cell growth in a cell viability assay.

NCI-H1355 = experiment: cells; format: functional, cell-based, Homo sapiens; settings: Homo sapiens, NCI-H1355;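 note: growth inhibition of human NCI-H1355 cells, read out by a cell viability assay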
Description: SANGER: Inhibition of human NCI-H1355 cell growth in a cell viability assay.

NCI-H2141 = experiment: cells; format: functional, cell-based, Homo sapiens; settings: Homo sapiens, NCI-H2141;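 note: growth inhibition of human NCI-H2141 cells, read out with a cell viability assay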
Description: SANGER: Inhibition of human NCI-H2141 cell growth in a cell viability assay.

EB-3 = experiment: cells; format: functional, cell-based, Homo sapiens; settings: Homo sapiens, EB-3;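 note: human EB-3 cells, growth inhibition read out via a cell viability assay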
Description: SANGER: Inhibition of human EB-3 cell growth in a cell viability assay.

GI-ME-N = experiment: cells; format: functional, cell-based, Homo sapiens; settings: Homo sapiens, GI-ME-N;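 note: growth inhibition of human GI-ME-N cells, read out with a cell viability assay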
Description: SANGER: Inhibition of human GI-ME-N cell growth in a cell viability assay.

KURAMOCHI = experiment: cells; format: functional, cell-based, Homo sapiens; settings: Homo sapiens, KURAMOCHI;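 note: growth inhibition of KURAMOCHI cells, read out with a cell viability assay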
Description: SANGER: Inhibition of human KURAMOCHI cell growth in a cell viability assay.

DU-4475 = experiment: cells; format: functional, cell-based, Homo sapiens; settings: Homo sapiens, DU-4475
Description: SANGER: Inhibition of human DU-4475 cell growth in a cell viability assay.

LB647-SCLC = experiment: cells; format: functional, cell-based, Homo sapiens; settings: Homo sapiens, LB647-SCLC;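 note: cell growth inhibition, read out by a viability assay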
Description: SANGER: Inhibition of human LB647-SCLC cell growth in a cell viability assay.

RS4-11 = experiment: cells; format: functional, cell-based, Homo sapiens; settings: Homo sapiens, RS4-11;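 note: growth inhibition of RS4-11 cells, read out by a cell viability assay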
Description: SANGER: Inhibition of human RS4-11 cell growth in a cell viability assay.

NCI-H69 = experiment: cells; format: functional, cell-based, Homo sapiens; settings: Homo sapiens, NCI-H69;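 note: growth inhibition of the cell line, read out with a cell viability assay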
Description: SANGER: Inhibition of human NCI-H69 cell growth in a cell viability assay.

WSU-NHL = experiment: cells; format: functional, cell-based, Homo sapiens; settings: Homo sapiens, WSU-NHL;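 note: growth inhibition of human WSU-NHL cells, read out with a cell viability assay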
Description: SANGER: Inhibition of human WSU-NHL cell growth in a cell viability assay.

LAN-6 = experiment: cells; format: functional, cell-based, Homo sapiens; settings: Homo sapiens, LAN-6;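 note: growth inhibition of LAN-6 cells, determined with a cell viability assay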
Description: SANGER: Inhibition of human LAN-6 cell growth in a cell viability assay.

NCI-H1770 = experiment: cells; format: functional, cell-based, Homo sapiens; settings: Homo sapiens, NCI-H1770;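 note: growth inhibition of NCI-H1770 cells determined with a viability readout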
Description: SANGER: Inhibition of human NCI-H1770 cell growth in a cell viability assay.

NCI-H82 = experiment: cells; format: functional, cell-based, Homo sapiens; settings: Homo sapiens, NCI-H82;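 note: growth inhibition of NCI-H82 cells, measured with a cell viability readout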
Description: SANGER: Inhibition of human NCI-H82 cell growth in a cell viability assay.

HD-MY-Z = experiment: cells; format: functional, cell-based, Homo sapiens; settings: Homo sapiens, HD-MY-Z;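 note: growth inhibition of HD-MY-Z cells, read out with a cell viability assay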
Description: SANGER: Inhibition of human HD-MY-Z cell growth in a cell viability assay.

NCI-H1155 = experiment: cells; format: functional, cell-based, Homo sapiens; settings: Homo sapiens, NCI-H1155
Description: SANGER: Inhibition of human NCI-H1155 cell growth in a cell viability assay.

Structure (SMILES)	IC50 (LB1047-RCC)	IC50 (BL-70)	IC50 (EVSA-T)	IC50 (NCI-H719)	IC50 (BB49-HNC)	IC50 (NOS-1)	IC50 (NCI-H1650)	IC50 (A101D)	IC50 (NCI-H1355)	IC50 (NCI-H2141)	IC50 (EB-3)	IC50 (GI-ME-N)	IC50 (KURAMOCHI)	IC50 (DU-4475)	IC50 (LB647-SCLC)	IC50 (NCI-H69)	IC50 (WSU-NHL)	IC50 (LAN-6)	IC50 (NCI-H1770)	IC50 (NCI-H82)	other results
C#Cc1cccc(Nc2ncnc3cc(OCCOC)c(OCCOC)cc23)c1 [ERLOTINIB]	> 2000 nM	> 2000 nM	> 2000 nM	> 2000 nM	> 2000 nM	> 2000 nM	> 2000 nM	> 2000 nM	> 2000 nM	> 2000 nM	> 2000 nM	> 2000 nM	> 2000 nM	> 2000 nM	> 2000 nM	> 2000 nM	> 2000 nM	> 2000 nM	> 2000 nM	> 2000 nM	IC50 (RS4-11): > 2000 nM; IC50 (HD-MY-Z): > 2000 nM
COc1cc(-c2nn([C@H]3CC[C@H](N4CCN(C(C)=O)CC4)CC3)c3ncnc(N)c23)ccc1NC(=O)c1cc2ccccc2n1C	143 nM	< 20 nM	> 5120 nM	> 5120 nM	> 5120 nM	196 nM	> 5120 nM	3710 nM	> 5120 nM	> 5120 nM	> 5120 nM	2290 nM	896 nM	> 5120 nM	4890 nM	> 5120 nM	> 5120 nM	> 5120 nM	> 5120 nM	> 5120 nM	IC50 (NCI-H1155): > 5120 nM; IC50 (RS4-11): > 5120 nM; IC50 (HD-MY-Z): 4880 nM
CC(=O)O[C@H]1C(=O)[C@@]2(C)[C@H]([C@H](OC(=O)c3ccccc3)[C@]3(O)C[C@H](OC(=O)[C@H](O)[C@@H](NC(=O)c4ccccc4)c4ccccc4)C(C)=C1C3(C)C)[C@]1(OC(C)=O)CO[C@@H]1C[C@@H]2O [PACLITAXEL]	25.1 nM	9.3 nM	39.2 nM	> 102 nM	> 102 nM	6.5 nM	> 102 nM	9.6 nM	9.14 nM	81 nM	> 102 nM	84.5 nM	7.48 nM	42.4 nM	10.5 nM	17.8 nM	> 102 nM	> 102 nM	> 102 nM	43.1 nM	IC50 (NCI-H1155): > 102 nM; IC50 (RS4-11): 8.36 nM; IC50 (HD-MY-Z): 11.6 nM
CCN(CC)CCNC(=O)c1c(C)[nH]c(/C=C2\C(=O)Nc3ccc(F)cc32)c1C [SUNITINIB]	1820 nM	1120 nM	> 8000 nM	> 8000 nM	3710 nM	15.3 nM	> 8000 nM	2780 nM	7460 nM	> 8000 nM	> 8000 nM	> 8000 nM	> 8000 nM	4370 nM	> 8000 nM	> 8000 nM	> 8000 nM	> 8000 nM	> 8000 nM	7380 nM	IC50 (NCI-H1155): > 8000 nM; IC50 (HD-MY-Z): 5170 nM
COc1cc(N2CCN(C)CC2)ccc1Nc1ncc2c(n1)N(C)c1ccccc1C(=O)N2C	> 8000 nM	> 8000 nM	> 8000 nM	> 8000 nM	> 8000 nM	3570 nM	> 8000 nM	7590 nM	> 8000 nM	> 8000 nM	> 8000 nM	889 nM	> 8000 nM	> 8000 nM	> 8000 nM	> 8000 nM	> 8000 nM	7970 nM	4740 nM	> 8000 nM	IC50 (NCI-H1155): > 8000 nM; IC50 (RS4-11): 3420 nM; IC50 (HD-MY-Z): > 8000 nM
